SMILES strings stand for the structures. Bridge positions count the residues as written; N and C are the ends. Peptide text beside a SMILES is read from it.

Series [1] concerns the target Sodium channel protein type 5 subunit alpha (Homo sapiens, UniProt Q14524). Description: Inhibition of human NaV1.5 at -140 mV holding potential by whole-cell patch clamp assay. A general note: Patch clamp records ionic current or voltage across a cell membrane.
The target in series [2] is T1, Sodium channel protein type 9 subunit alpha (Homo sapiens, UniProt Q15858). Description: Inhibition of human NaV1.7 at -140 mV holding potential by whole-cell patch clamp assay.
T1 sequence (Q15858 whole entry): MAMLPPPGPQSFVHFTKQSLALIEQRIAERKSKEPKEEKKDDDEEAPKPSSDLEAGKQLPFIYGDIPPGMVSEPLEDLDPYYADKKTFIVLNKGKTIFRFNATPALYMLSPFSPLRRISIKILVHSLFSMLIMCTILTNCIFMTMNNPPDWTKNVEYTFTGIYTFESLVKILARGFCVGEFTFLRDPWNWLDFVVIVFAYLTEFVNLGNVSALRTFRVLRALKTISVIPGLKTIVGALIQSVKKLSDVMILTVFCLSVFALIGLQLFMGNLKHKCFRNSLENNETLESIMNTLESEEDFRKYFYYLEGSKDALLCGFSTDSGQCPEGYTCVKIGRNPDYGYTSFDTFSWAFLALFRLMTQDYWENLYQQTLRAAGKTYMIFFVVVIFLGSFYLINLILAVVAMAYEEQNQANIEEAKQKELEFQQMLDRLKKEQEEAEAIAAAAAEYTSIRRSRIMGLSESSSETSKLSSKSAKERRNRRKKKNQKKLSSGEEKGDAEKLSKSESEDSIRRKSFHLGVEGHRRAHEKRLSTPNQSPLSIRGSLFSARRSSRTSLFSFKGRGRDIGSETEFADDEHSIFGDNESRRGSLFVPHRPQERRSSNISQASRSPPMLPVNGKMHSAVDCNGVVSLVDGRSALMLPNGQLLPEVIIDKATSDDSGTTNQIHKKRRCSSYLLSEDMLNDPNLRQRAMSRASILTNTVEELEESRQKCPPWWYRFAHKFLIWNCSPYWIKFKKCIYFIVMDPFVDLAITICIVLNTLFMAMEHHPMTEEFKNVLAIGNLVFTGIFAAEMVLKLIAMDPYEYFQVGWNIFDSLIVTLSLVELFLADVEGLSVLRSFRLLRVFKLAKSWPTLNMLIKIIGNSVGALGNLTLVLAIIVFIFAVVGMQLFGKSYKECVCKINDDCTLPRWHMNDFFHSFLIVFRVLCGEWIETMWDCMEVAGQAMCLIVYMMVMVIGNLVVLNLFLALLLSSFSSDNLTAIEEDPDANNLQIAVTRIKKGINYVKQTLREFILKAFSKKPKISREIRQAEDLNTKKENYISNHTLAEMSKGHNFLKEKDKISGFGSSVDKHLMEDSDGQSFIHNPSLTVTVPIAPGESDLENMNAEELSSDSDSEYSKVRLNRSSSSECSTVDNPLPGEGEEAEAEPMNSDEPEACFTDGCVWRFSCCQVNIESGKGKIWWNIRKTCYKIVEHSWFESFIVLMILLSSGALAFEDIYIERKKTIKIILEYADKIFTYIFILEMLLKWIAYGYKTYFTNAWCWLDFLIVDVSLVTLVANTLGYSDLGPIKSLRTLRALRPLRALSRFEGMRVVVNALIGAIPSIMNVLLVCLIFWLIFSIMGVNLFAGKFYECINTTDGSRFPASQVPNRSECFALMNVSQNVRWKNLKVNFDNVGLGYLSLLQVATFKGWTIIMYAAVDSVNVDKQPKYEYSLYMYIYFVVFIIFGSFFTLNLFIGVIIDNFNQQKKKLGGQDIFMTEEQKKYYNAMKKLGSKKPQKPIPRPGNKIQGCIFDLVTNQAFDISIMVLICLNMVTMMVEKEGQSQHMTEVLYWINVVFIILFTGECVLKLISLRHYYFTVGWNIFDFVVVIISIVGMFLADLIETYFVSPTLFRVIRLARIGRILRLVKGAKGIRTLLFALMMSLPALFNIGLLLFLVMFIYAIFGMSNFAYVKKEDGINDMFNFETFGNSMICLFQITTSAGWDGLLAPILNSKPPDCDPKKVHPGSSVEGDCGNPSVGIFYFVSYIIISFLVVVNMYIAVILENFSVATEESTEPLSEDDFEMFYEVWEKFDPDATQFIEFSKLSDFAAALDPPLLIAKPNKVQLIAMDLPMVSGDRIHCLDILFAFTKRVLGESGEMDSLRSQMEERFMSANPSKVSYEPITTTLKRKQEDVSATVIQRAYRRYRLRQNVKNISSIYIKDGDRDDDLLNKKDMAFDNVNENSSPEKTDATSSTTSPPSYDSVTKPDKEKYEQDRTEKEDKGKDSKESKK
The target in series [3] is Sodium channel protein type 4 subunit alpha (Homo sapiens, UniProt P35499). Description: Inhibition of human NaV1.4 at -140 mV holding potential by whole-cell patch clamp assay.
Series [4] has as its target Sodium channel protein type 9 subunit alpha (Mus musculus, UniProt Q62205). Kind of series: Inhibition of NaV1.7 in C57BL/6 mouse DRG neurons at -140 mV holding potential by whole-cell patch clamp assay.
Series [5] addresses T1, Sodium channel protein type 9 subunit alpha. Description: Inhibition of human NaV1.7 by patchXpress 700A electrophysiology method.
A short description of series [6]: Stability in human plasma assessed as intact compound remaining at 37 degC after 24 hrs by LC-MS method. The series is classed as ADME, cell-free. The following applies: read-out: Stability.
Series [7] in a line: Stability in mouse plasma assessed as intact compound remaining at 37 degC after 24 hrs by LC-MS method. It counts as ADME, cell-free. The settings on record: read-out: Stability.

Sodium channel protein type 5 subunit alpha, sequence (Q14524 whole entry): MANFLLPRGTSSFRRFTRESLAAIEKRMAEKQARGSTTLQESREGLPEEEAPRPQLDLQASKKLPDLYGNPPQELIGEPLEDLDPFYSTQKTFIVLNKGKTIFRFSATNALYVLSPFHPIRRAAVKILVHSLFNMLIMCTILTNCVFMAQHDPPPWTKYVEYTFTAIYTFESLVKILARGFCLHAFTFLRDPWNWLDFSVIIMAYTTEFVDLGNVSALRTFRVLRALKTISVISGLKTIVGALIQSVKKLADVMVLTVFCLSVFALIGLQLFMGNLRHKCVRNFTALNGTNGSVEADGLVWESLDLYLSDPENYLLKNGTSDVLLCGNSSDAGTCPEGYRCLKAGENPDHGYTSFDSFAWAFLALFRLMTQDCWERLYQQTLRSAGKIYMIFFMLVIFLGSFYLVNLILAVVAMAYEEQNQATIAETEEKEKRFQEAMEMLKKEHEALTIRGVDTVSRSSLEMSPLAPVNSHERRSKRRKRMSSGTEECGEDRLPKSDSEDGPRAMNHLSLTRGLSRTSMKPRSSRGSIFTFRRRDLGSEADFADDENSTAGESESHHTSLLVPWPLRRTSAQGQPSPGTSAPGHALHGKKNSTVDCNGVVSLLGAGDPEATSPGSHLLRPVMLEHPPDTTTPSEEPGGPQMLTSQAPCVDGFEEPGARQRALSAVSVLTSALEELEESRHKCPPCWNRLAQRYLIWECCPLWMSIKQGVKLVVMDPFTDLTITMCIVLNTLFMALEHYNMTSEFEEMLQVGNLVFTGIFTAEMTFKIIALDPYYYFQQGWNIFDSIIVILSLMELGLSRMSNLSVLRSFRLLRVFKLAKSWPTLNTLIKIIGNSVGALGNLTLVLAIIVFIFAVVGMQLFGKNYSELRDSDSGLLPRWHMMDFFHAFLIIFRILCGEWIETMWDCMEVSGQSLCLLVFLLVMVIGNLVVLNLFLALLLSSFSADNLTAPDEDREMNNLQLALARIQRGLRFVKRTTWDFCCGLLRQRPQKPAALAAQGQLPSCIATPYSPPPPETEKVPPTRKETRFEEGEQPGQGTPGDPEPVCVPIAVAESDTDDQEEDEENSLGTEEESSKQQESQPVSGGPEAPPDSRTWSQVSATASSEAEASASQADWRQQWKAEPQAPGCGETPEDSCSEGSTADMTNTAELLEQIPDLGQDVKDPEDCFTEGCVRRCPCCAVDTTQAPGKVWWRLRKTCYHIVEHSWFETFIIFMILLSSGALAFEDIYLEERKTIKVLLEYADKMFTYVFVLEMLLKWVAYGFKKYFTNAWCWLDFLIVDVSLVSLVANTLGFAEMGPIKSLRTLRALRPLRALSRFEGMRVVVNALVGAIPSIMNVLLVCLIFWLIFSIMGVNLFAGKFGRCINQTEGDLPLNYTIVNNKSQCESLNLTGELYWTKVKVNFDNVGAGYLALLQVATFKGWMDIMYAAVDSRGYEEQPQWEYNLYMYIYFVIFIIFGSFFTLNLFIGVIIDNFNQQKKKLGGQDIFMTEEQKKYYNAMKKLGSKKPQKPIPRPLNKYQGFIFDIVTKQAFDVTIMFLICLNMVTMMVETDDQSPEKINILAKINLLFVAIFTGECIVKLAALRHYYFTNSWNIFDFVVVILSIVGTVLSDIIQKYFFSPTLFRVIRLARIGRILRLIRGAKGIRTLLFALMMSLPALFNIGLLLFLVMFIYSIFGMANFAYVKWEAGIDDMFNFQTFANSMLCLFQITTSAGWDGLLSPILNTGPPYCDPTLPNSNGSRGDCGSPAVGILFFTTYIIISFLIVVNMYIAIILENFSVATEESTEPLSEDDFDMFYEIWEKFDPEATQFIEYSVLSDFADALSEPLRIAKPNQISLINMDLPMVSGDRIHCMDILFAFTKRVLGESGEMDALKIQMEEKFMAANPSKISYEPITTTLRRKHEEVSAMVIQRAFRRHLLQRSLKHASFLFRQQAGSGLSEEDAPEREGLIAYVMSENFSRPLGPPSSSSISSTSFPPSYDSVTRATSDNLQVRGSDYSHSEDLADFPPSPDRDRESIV

Take `CC[C@H](C)[C@H](NC(=O)[C@H](CCC(N)=O)NC(=O)[C@H](Cc1ccc(O)cc1)NC(=O)[C@H](CCCCN)NC(=O)[C@@H]1CSSC[C@@H]2NC(=O)[C@H](CCC(N)=O)NC(=O)[C@H](CC(=O)O)NC(=O)[C@H](CC(N)=O)NC(=O)[C@H](CO)NC(=O)[C@@H]3CCCN3C(=O)[C@H](CC(N)=O)NC(=O)[C@@H]3CSSC[C@H](NC(=O)[C@H](C(C)C)NC(=O)[C@H](CC(C)C)NC(=O)[C@H](CCCCN)NC(=O)[C@H](CO)NC(=O)[C@H](CO)NC(=O)[C@H](CCCCN)NC(=O)[C@H](CSSC[C@H](NC(=O)[C@@H](N)CCC(=O)O)C(=O)N[C@@H](CC(C)C)C(=O)N[C@@H](CCC(=O)O)C(=O)N[C@@H]([C@@H](C)CC)C(=O)N[C@@H](Cc4ccccc4)C(=O)N[C@@H](CCCCN)C(=O)N[C@@H](C)C(=O)N3)NC2=O)C(=O)N[C@@H](CO)C(=O)N[C@@H](CCCNC(=N)N)C(=O)N[C@@H](CCCCN)C(=O)N[C@@H]([C@@H](C)O)C(=O)N[C@@H](CCCNC(=N)N)C(=O)N[C@@H](Cc2c[nH]c3ccccc23)C(=O)N1)C(=O)O`: the figures for the IC50 in series [1], in series [2] and in series [3] were 25000 nM, 33 nM and 3900 nM, respectively.
For the compound `CC[C@H](C)[C@@H]1NC(=O)[C@@H]2CSSC[C@@H]3NC(=O)[C@H](C(C)C)NC(=O)[C@H](CC(C)C)NC(=O)[C@H](CC(N)=O)NC(=O)[C@@H]4CCCN4C(=O)[C@H](CCCNC(=N)N)NC(=O)[C@H](CSSC[C@H](NC(=O)[C@@H](N)CC(=O)O)C(=O)N[C@@H](CC(C)C)C(=O)NCC(=O)N[C@@H](C)C(=O)N[C@@H](CCSC)C(=O)N[C@@H](CCCNC(=N)N)C(=O)N[C@@H](CCCCN)C(=O)N2)NC(=O)[C@H](CSSC[C@@H](C(=O)N[C@@H](CCCCN)C(=O)N[C@@H](Cc2ccc(O)cc2)C(=O)N[C@H](C(=O)N[C@@H](Cc2ccccc2)C(N)=O)C(C)C)NC(=O)[C@H](Cc2c[nH]c4ccccc24)NC(=O)[C@H](CCCCN)NC(=O)[C@H](Cc2cnc[nH]2)NC(=O)[C@H]([C@@H](C)O)NC(=O)[C@H](CCCNC(=N)N)NC(=O)[C@H](CO)NC3=O)NC(=O)[C@H](CCCCN)NC(=O)[C@H](CC(=O)O)NC(=O)[C@H](CC(N)=O)NC(=O)[C@H](CC(=O)O)NC(=O)[C@@H]2CCCN2C1=O` (H-DCLGAMRKCIPDNDKCCRPNLVCSRTHKWCKYVF-NH2; disulfide 2-17, 9-23, 16-30), the IC50 (as a rule, the concentration needed to halve the response being measured) in series [4] was found to be 22.6 nM; in series [1], 27000 nM; in series [2], 630 nM; in series [5], 27 nM. In addition, the remaining at 24 h in series [6] and in series [7] was 99% each time.
On to `N=C(N)NCCC[C@@H]1NC(=O)[C@H](CO)NC(=O)[C@H](Cc2c[nH]cn2)NC(=O)[C@H](CC(=O)O)NC(=O)[C@H](CCCNC(=N)N)NC(=O)[C@H]2CSSC[C@@H]3NC(=O)[C@@H](N)CSSC[C@H](NC1=O)C(=O)N[C@H](C(=O)O)CSSC[C@H](NC(=O)[C@H](CC(N)=O)NC3=O)C(=O)N[C@@H](CO)C(=O)N[C@@H](CO)C(=O)N[C@@H](CCCCN)C(=O)N[C@@H](Cc1c[nH]c3ccccc13)C(=O)N2`, for which the IC50 in series [1] is above 25000 nM; in series [2], 460 nM; in series [3], 20 nM.
